Laboratory results reported in patent US20100216751A1 (priority 2007, published 2010).

Key:
human serum albumin = human serum albumin (Homo sapiens, UniProt P02768); experiment: Protein binding to human serum albumin; assay type: in vitro ADME
[1] = Solubility of bevirimat and bevirimat dimeglumine in single vehicles; details: in 100% water, 100% saline, 100% dextrose, 100% PEG 400, and 25% Poloxamer 188

Sequence of human serum albumin (P02768 25-609): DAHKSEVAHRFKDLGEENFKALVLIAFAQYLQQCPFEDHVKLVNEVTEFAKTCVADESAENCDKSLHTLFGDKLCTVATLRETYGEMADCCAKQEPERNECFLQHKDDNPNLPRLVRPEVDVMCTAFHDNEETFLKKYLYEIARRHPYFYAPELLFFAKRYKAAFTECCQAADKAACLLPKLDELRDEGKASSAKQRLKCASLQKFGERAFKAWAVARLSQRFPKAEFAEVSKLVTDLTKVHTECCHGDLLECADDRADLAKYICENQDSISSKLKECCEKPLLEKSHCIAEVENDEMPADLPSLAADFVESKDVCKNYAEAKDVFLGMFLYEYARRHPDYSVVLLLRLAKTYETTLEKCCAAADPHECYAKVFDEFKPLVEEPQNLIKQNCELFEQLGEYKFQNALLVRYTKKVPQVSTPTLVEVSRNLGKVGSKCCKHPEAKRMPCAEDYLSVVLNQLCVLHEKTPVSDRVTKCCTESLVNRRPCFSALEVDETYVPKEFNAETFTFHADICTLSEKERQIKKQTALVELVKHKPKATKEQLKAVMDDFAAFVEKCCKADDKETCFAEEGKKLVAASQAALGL

SMILES: C=C(C)[C@@H]1CC[C@]2(C(=O)O)CC[C@]3(C)[C@H](CC[C@@H]4[C@@]5(C)CC[C@H](OC(=O)CC(C)(C)C(=O)O)C(C)(C)[C@@H]5CC[C@]43C)[C@@H]12 [Bevirimat, 3-O-(3′,3′-dimethylsuccinyl)betulinic acid]
- fraction unbound (human serum albumin): ≤ 0.01
- solubility (in words) [1]: poorly soluble
